Source: ChEMBL document CHEMBL3763143, “Novel morpholine scaffolds as selective dopamine (DA) D3 receptor antagonists” (Bioorg Med Chem Lett, 2016)

Tests used:
[1] = Fraction absorbed in portal vein-cannulated rat; format: ADME, organism-based; details: in vivo
[2] = Blood clearance in portal vein-cannulated rat; format: ADME, organism-based; details: whole blood
[3] = Intrinsic clearance in human liver microsomes assessed per mg of protein; format: ADME; details: read-out: CLH
[4] = Hepatic extraction ratio in portal vein-cannulated rat; format: ADME, organism-based; details: in vivo, read-out: ERH
[5] = Half life in portal vein-cannulated rat; format: ADME, organism-based; details: in vivo
Cytochrome P450 2D6 = Cytochrome P450 2D6 (Homo sapiens, UniProt P10635); test: Inhibition of human CYP2D6 expressed in bactosome; format: ADME
[6] = Fraction unbound in portal vein-cannulated rat brain; format: ADME, tissue-based
Cytochrome P450 2C19 = Cytochrome P450 2C19 (Homo sapiens, UniProt P33261); test: Inhibition of human CYP2C19 expressed in bactosome; format: ADME
[7] = molecular target: Voltage-gated inwardly rectifying potassium channel KCNH2 (Homo sapiens, UniProt Q12809); test: Displacement of [3H]-dofetilide from human ERG potassium channel by scintillation proximity assay
Cytochrome P450 3A4 [8] = molecular target: T1, Cytochrome P450 3A4 (Homo sapiens, UniProt P08684); test: Inhibition of human CYP3A4 expressed in bactosome using DBOMF as substrate; format: ADME
[9] = Intrinsic clearance in rat liver microsomes assessed per mg of protein; format: ADME; details: read-out: CLH
[10] = Fraction unbound in portal vein-cannulated rat blood; format: ADME, tissue-based
Cytochrome P450 2C9 = Cytochrome P450 2C9 (Homo sapiens, UniProt P11712); test: Inhibition of human CYP2C9 expressed in bactosome; format: ADME
Cytochrome P450 3A4 [11] = molecular target: T1, Cytochrome P450 3A4; test: Inhibition of human CYP3A4 expressed in bactosome using 7BQ as substrate; format: ADME
[12] = Bioavailability in portal vein-cannulated rat; format: ADME, organism-based; details: in vivo
Cytochrome P450 1A2 = molecular target: T2, Cytochrome P450 1A2 (Homo sapiens, UniProt P05177); test: Inhibition of human CYP1A2 expressed in bactosome; format: ADME
T2 sequence (P05177 whole entry): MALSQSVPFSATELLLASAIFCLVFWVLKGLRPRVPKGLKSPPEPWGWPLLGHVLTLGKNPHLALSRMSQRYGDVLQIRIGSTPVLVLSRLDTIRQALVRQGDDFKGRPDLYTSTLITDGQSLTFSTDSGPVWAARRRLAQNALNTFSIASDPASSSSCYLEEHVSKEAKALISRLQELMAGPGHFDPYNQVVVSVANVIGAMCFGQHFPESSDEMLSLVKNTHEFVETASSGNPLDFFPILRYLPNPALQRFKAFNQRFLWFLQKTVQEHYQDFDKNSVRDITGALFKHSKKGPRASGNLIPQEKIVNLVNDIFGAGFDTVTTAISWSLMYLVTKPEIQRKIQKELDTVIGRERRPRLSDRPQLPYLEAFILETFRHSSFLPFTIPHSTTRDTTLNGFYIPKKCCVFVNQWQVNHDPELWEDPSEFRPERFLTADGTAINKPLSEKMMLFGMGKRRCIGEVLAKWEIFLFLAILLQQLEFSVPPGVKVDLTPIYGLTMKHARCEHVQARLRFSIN

D(3) dopamine receptor = D(3) dopamine receptor (Rattus norvegicus, UniProt P19020)
Description: Displacement of [125I]-7-OH-PIPAT from rat brain dopamine D3 receptor after 45 mins by microplate scintillation counting analysis

[13] = Volume of distribution at steady state in portal vein-cannulated rat; format: ADME, organism-based; details: in vivo, read-out: Vdss
[14] = molecular target: T3, Muscarinic acetylcholine receptor M1 (Homo sapiens, UniProt P11229); test: Antagonist activity at muscarinic M1 receptor (unknown origin)
T3 sequence (P11229 whole entry): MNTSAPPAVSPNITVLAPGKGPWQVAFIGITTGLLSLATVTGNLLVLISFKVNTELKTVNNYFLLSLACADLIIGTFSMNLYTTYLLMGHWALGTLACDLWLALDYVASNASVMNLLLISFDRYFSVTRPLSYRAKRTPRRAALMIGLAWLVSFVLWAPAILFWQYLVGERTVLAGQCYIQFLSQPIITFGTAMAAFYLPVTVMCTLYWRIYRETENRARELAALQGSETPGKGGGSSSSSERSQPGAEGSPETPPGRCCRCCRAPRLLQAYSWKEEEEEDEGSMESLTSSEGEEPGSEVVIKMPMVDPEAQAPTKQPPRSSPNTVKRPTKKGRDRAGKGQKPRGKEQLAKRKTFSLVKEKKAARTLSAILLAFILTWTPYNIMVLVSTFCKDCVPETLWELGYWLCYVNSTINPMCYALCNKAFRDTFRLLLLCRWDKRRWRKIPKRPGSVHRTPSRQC

T1 sequence (P08684 whole entry): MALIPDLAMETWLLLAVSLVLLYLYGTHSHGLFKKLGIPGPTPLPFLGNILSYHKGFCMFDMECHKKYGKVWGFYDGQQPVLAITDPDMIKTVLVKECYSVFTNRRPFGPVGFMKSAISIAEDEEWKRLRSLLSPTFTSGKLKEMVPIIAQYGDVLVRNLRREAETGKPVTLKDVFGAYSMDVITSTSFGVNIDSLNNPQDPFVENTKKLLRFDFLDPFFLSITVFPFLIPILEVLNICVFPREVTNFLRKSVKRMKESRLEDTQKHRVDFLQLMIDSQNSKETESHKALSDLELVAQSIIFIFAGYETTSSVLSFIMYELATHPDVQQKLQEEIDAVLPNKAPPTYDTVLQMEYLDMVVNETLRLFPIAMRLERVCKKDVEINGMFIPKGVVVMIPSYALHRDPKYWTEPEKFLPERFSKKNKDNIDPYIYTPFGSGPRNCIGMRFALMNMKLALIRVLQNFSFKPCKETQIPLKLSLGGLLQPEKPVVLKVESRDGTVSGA
Chain of Cytochrome P450 2C19 (P33261 whole entry): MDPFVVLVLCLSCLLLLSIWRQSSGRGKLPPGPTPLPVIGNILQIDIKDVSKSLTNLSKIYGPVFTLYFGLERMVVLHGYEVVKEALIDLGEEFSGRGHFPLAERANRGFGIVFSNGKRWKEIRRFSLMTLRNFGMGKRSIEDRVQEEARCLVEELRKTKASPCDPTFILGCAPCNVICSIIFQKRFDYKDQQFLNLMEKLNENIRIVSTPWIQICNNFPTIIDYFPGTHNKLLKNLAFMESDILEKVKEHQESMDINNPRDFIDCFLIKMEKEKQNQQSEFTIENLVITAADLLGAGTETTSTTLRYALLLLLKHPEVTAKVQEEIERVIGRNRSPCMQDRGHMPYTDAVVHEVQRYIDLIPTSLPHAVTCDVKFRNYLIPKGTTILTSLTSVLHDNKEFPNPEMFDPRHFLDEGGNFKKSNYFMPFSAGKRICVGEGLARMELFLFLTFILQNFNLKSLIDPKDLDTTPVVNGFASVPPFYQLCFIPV
Chain of Voltage-gated inwardly rectifying potassium channel KCNH2 (Q12809 whole entry): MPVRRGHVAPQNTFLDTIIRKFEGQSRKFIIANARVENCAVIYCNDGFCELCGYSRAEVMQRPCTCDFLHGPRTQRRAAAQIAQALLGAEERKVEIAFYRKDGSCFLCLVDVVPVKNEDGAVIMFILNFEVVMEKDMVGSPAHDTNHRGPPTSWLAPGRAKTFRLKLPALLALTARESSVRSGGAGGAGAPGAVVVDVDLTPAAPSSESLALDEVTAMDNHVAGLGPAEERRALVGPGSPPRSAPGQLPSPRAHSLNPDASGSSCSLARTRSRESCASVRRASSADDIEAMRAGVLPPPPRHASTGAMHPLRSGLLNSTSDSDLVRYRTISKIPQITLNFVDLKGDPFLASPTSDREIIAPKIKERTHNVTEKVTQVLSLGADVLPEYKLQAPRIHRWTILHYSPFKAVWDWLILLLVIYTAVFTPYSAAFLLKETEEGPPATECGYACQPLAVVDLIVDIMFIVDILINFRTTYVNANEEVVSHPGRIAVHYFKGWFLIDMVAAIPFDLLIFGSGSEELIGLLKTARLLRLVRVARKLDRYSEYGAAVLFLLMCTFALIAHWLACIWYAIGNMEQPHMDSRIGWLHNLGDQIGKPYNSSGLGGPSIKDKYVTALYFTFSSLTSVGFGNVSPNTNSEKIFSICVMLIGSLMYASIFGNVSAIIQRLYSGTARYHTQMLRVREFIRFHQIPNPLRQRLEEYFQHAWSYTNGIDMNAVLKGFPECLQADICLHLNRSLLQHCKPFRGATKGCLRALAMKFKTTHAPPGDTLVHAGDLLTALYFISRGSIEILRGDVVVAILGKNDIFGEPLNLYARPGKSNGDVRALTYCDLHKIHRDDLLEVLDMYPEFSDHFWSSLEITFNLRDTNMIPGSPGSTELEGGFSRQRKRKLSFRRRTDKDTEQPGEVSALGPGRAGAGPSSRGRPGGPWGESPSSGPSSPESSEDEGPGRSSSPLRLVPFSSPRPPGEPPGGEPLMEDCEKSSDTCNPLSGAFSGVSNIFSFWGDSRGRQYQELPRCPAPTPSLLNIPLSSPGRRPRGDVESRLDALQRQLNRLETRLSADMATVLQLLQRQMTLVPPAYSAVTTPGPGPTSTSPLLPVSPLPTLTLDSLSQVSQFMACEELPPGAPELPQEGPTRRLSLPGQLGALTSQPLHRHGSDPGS
Chain of D(3) dopamine receptor (P19020 whole entry): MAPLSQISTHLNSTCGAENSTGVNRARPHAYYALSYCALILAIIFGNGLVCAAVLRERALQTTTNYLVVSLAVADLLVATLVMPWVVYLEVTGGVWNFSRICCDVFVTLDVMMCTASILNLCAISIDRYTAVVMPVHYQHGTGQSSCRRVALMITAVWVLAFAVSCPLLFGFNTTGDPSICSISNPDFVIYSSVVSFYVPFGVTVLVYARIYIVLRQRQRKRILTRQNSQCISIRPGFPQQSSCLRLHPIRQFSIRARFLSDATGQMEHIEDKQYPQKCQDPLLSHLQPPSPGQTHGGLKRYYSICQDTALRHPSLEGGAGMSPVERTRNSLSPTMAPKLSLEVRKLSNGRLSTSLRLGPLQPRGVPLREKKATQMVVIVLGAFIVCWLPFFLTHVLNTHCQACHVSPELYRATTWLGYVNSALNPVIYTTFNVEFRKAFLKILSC
Chain of Cytochrome P450 2D6 (P10635 whole entry): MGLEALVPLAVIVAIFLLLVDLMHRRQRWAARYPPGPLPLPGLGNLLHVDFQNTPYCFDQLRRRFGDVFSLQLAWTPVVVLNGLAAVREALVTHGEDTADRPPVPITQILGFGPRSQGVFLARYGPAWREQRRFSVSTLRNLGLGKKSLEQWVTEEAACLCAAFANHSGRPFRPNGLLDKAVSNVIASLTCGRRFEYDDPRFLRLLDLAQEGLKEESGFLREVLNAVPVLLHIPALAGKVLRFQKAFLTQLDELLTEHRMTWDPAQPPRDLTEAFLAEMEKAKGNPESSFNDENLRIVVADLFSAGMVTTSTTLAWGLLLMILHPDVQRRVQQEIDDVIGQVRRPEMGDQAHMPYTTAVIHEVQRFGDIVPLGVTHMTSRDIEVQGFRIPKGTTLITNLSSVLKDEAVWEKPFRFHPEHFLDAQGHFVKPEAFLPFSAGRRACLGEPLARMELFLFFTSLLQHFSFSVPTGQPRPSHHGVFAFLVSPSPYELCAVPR
Chain of Cytochrome P450 2C9 (P11712 whole entry): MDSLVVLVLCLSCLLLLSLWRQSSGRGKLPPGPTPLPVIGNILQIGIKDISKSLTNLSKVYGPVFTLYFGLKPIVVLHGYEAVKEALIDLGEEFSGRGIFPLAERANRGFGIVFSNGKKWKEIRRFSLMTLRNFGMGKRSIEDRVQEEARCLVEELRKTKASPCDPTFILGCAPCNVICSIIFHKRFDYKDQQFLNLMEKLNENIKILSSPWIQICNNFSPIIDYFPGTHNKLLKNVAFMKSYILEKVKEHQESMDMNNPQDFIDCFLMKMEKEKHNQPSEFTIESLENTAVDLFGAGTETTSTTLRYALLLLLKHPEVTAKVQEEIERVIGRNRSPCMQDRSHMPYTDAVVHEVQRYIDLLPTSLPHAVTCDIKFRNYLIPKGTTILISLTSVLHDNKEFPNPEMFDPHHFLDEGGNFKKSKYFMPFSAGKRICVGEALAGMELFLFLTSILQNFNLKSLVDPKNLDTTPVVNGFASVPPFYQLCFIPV

Cc1ncoc1-c1nnc(SCCCN2CCOC(c3ccc(F)cc3)C2)n1C (stereo in doubt; 7)
Fa [1]: 100%
clearance [2]: 40 mL/min/kg
microsomal CLint [3]: 21.7 µL/min/mg
hepatic extraction ratio [4]: 0.1
half-life [5]: 48 min
IC50 (Cytochrome P450 2D6): > 30 µM
fraction unbound [6]: > 0.5
IC50 (Cytochrome P450 2C19): > 30 µM
Ki [7]: 3.16 µM
IC50 (Cytochrome P450 3A4 [8]): > 30 µM
microsomal CLint [9]: < 9 µL/min/mg
fraction unbound [10]: 0.17
IC50 (Cytochrome P450 2C9): > 30 µM
IC50 (Cytochrome P450 3A4 [11]): > 30 µM
bioavailability [12]: 100%
IC50 (Cytochrome P450 1A2): > 30 µM
Ki (D(3) dopamine receptor): 0.251 µM
Vd [13]: 2.61 L/kg
Ki [14]: 3.16 µM
